Data as given in patent US20230271956A1, “AMIDE DERIVATIVES” (Merck Patent GmbH, priority 2020, published 2023).

Tests used:
human rec ACSS2 = biological target: T1, human rec ACSS2 (Homo sapiens, UniProt Q9NR19); assay: Biochemical activity ACSS2 assay (AMP-Glo); settings: human recombinant ACSS2, AMP-Glo, 180 min at 37° C.
T1 construct: myc (C); purchased Origene
Protocol: The biochemical activity assay for ACSS2 is based on the detection of released AMP by AMP-Glo ™ Assay kit (Promega, Madison). The assay is run in three steps: the enzymatic reaction in which human rec ACSS2 activates acetate with ATP and Coenzyme A as cosubstrates to acetyI-coA thereby releasing AMP and the detection reaction of AMP by AMP Glo assay in which after the destruction of the residual ATP with AMP Glo reagent 1 produced AMP is converted to ATP that is measured in a luciferase assay system (detection reagent). The ACSS2 activity correlates with the detected luminescence signal.
The assay was performed in Perkin Elmer 384well white Proxiplates in a total volume of 8 µl.
1 nM (fc) C-term myc tagged ACSS2 (human, recombinant, Origene, Rockville, US) and a mixture of 100 µM (fc) ATP, 100 µM (fc) Coenzyme A and 500 µM (fc) sodium acetate were incubated in a total volume of 5 µl (50 mM Hepes, 1 mM Mg-chloride, 150 mM NaCl, 1 mM DTT, 0.01 % (w/v) BSA, 0.3 % DMSO, pH 7.5) in the absence or presence of the test compound (10 dilution concentrations, start conc 30 µM) for 180 min at 37° C. The reaction was stopped and residual ATP destroyed by the addition of 1 µl AMP Glo reagent solution (Promega, Madison, US). After 1 h incubation at room temperature 2 µl of AMP Glo detection reagent was added and the assay was incubated for 0.75 hr at room temperature. The luminescence signal was measured with an Envision multimode reader (Perkin Elmer LAS Germany GmbH) at 700 nm in luminescence mode. The full value used was the inhibitor-free reaction. The pharmacological zero value was generated by addition of ACSS2 inhibitor (Ac-CoA Synthase Inhibitor - CAS 508186-14-9 -Calbiochem) in a final concentration of 5 µM. The inhibitory values (IC50) were determined using the program Assay Analyzer® from GeneData.

ACSS2 = biological target: T2, ACSS2 (Homo sapiens, UniProt Q9NR19); assay: Cellular assay of 14C acetate incorporation into histones (IC50 ACSS2 cellular histone); type: cell-based; settings: HCT-15 cells
T2 construct: endogenous fatty acid synthesis activity in the human HCT-15 cancer cell line; endogenous in cells; host or cells: HCT-15
Protocol: This protocol describes a cellular assay capable to quantify endogenous histone acetylation activity in the human HCT-15 cancer cell line following the incorporation of extracellularly administered radiolabeled ^14C acetate with a scintillation based read out on acid extracted histones.
HCT-15 cells are trypsinized, washed and suspended in DMEM culture medium supplemented with penicillin/streptomycin (100 U/mL), sodium pyruvate (1 mM), and 10% FBS
Compounds serial dilutions are prepared in 96-well V-bottom microplate from 10 mM stock solutions in DMSO. From these dilutions 0.5 µl are transferred to a fresh plate including pure DMSO as negative control. The dilutions are prepared such, that the final concentration in the assay is 1/400 of the concentration in the serial dilution. The final DMSO concentration in the assay is 0.25 %.
The cell suspension is seeded at densities of 2x10^5 cells per 170 µl into individual wells of a 96 well plate each containing 0.5 µl aliquots of compound serial dilutions and are kept for 1h in a cell incubator. To each well 30 µL of a mixture containing 0.5 mCi/mL of ^14C-acetate with full medium are added. Then, the wells are incubated for 3 hrs in the cell incubator.
Further steps of the procedure should be conducted on ice or instrumentations precooled to 4° C. Cells are sedimented in the 96-well V-bottom microplate by centrifugation (Eppendorf 5804 R) at 1200 rpm for 5 min. The supernatant is removed and the cells are washed twice with 200µL of PBS-NaB (5 mM sodium butyrate) buffer by iterative resuspension and centrifugation. Finally, the cells are resuspended in 50 µL of TEB (PBS-NaB + 0.5 % Triton X-100) and left on ice for 10 minutes. After centrifugation at 2300 rpm for 10 minutes at 4° C. the supernatant is removed, the remaining pellet is suspended in 50 µL of 0.2 M HCl and incubated over night at 4° C. After incubation the well plate is shaken for 2 minutes in a MTP plate shaker set to 1200 rpm and then centrifuged at 3700 rpm for 10 mins. The lysate is carefully aspirated (~43 µL) and transferred into a white MTP plate (Greiner bio-one 65509). 90 µL of Ultima Gold XR scintillation cocktail are added and the plates are sealed with a transparent cover tape before mixing vigorously using plate shaker set to 1200 rpm. Radioactivity from ^14C incorporation in the wells is measured as CPM count in a MicroBeta Trilux luminescence counter.

T1 sequence (Q9NR19 whole entry): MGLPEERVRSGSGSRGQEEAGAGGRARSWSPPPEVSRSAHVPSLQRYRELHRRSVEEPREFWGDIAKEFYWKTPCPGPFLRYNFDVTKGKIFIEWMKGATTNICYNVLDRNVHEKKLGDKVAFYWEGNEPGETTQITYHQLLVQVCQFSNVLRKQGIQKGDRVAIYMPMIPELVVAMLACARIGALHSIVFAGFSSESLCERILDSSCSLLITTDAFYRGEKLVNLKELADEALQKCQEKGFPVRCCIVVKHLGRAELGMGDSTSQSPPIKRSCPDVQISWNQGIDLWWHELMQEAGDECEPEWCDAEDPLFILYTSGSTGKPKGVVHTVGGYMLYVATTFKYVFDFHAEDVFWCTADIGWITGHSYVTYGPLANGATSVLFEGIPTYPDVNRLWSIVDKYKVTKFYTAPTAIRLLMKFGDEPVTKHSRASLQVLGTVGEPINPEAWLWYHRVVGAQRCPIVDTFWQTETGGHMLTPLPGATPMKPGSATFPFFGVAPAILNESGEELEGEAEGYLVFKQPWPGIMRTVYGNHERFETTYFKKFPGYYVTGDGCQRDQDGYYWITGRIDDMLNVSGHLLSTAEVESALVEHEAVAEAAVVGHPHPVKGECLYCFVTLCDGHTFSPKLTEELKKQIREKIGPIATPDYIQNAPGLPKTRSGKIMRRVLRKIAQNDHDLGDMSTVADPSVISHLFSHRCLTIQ
T2 sequence (Q9NR19 whole entry): as above

| SMILES | IC50 (human rec ACSS2) [nM] | IC50 (ACSS2) [nM] |
| --- | --- | --- |
| CCc1c(C(O)(c2ccccc2)c2ccc(C)s2)nc2cc(OC)c(C(=O)Nc3ncn(CC)n3)cn12 (single isomer, unassigned) [Compound 26, 3-Ethyl-2-[hydroxy-(5-methyl-thiophen-2-yl)-phenyl-methyl]-7-methoxy-imidazo[1,2-a]pyridine-6-carboxylic acid (1-ethyl-1H-[1,2,4]triazol-3-yl)-amide] | 100 to 10000 | – |
| CCn1cnc(NC(=O)c2cc3c(nc2OC)nc(C(O)(c2ccccc2)c2ccccn2)n3CC)n1 (single isomer, unassigned) [Compound 54, 1-ethyl-N-(1-ethyl-1H-1,2,4-triazol-3-yl)-2-[hydroxy(phenyl)(pyridin-2-yl)methyl]-5-methoxy-1H-imidazo[4,5-b]pyridine-6-carboxamide] | 10 to 100 | 10 to 100 |
| [2H]c1c([2H])c([2H])c(C(O)(c2c([2H])c([2H])c([2H])c([2H])c2[2H])c2nc3nc(OC)c(C(=O)Nc4ncn(CC)n4)cc3n2CC)c([2H])c1[2H] [Compound 37, 1-ethyl-N-(1-ethyl-1H-1,2,4-triazol-3-yl)-2-{hydroxybis[(2,3,4,5,6-^2H5)phenyl]methyl}-5-methoxy-1 H-imidazo[4,5-b]pyridine-6-carboxamide] | 0.01 to 1 | – |
| CCn1cc(NC(=O)c2cnc3nc(C(O)(c4ccccc4F)c4ccccc4F)n(CC)c3c2)cn1 [Compound 112, 2-[bis(2-fluorophenyl)(hydroxy)methyl]-1-ethyl-N-(1-ethyl-1H-pyrazol-4-yl)-1H-imidazo[4,5-b]pyridine-6-carboxamide] | 10 to 100 | 10 to 100 |
| CCn1cnc(NC(=O)c2cc3c(nc2OC)nc(C(O)(c2ccccc2)c2ccccc2OC)n3CC)n1 (racemic) [Compound 57, 1-ethyl-N-(1-ethyl-1H-1,2,4-triazol-3-yl)-2-[hydroxy(2-methoxyphenyl)phenylmethyl]-5-methoxy-1H-imidazo[4,5-b]pyridine-6-carboxamide] | 100 to 10000 | 10 to 100 |
| CCn1cnc(NC(=O)c2cc3c(nc2OC)nc(C(O)(c2ccccc2)c2ccc4ccccc4n2)n3CC)n1 (racemic) [Compound 35, 1-ethyl-N-(1-ethyl-1H-1,2,4-triazol-3-yl)-2-[hydroxy(phenyl)(quinolin-2-yl)methyl]-5-methoxy-1H-imidazo[4,5-b]pyridine-6-carboxamide] | 1 to 10 | – |
| CCc1cc2nc(C(O)(c3ccccc3)c3ccccc3)c(CC)n2cc1C(=O)Nc1ncn(CC)n1 (racemic) [Compound 33, 3,7-diethyl-N-(1-ethyl-1H-1,2,4-triazol-3-yl)-2-(hydroxydiphenylmethyl)imidazo[1,2-a]pyridine-6-carboxamide] | 10 to 100 | – |
| CCn1cnc(NC(=O)c2cc3c(nc2OC)nc(C(O)(c2ccccc2)c2ccccc2)n3C)n1 [Compound 36, N-(1-ethyl-1H-1,2,4-triazol-3-yl)-2-(hydroxydiphenylmethyl)-5-methoxy-1-methyl-1H-imidazo[4,5-b]pyridine-6-carboxamide] | 0.01 to 1 | – |
| CCn1cnc(NC(=O)c2cc3c(nc2OC)nc(C(O)(c2ccccc2)c2ccsc2)n3CC)n1 (racemic) [Compound 39, 1-ethyl-N-(1-ethyl-1H-1,2,4-triazol-3-yl)-2-[hydroxy(phenyl)(thiophen-3-yl)methyl]-5-methoxy-1H-imidazo[4,5-b]pyridine-6-carboxamide] | 1 to 10 | – |
| CCc1c(C(O)(c2ccccc2)c2ccc(C)s2)nc2cc(OC)c(C(=O)Nc3ncn(CC)n3)cn12 (single isomer, unassigned) [Compound 27, 3-Ethyl-2-[hydroxy-(5-methyl-thiophen-2-yl)-phenyl-methyl]-7-methoxy-imidazo[1,2-a]pyridine-6-carboxylic acid (1-ethyl-1H-[1,2,4]triazol-3-yl)-amide] | 1 to 10 | – |
| CCn1cnc(NC(=O)c2cc3c(nc2OC)nc(C(O)(c2ccsc2)c2ccsc2)n3CC)n1 [Compound 38, 1-ethyl-N-(1-ethyl-1H-1,2,4-triazol-3-yl)-2-[hydroxybis(thiophen-3-yl)methyl]-5-methoxy-1H-imidazo[4,5-b]pyridine-6-carboxamide] | 1 to 10 | – |

The next lines start with the values.

| IC50 (human rec ACSS2) [nM] | IC50 (ACSS2) [nM] | SMILES |
| --- | --- | --- |
| 10 to 100 | 10 to 100 | CCn1ncc(NC(=O)c2cc3c(nc2OC)nc(C(O)(c2ccccc2)c2ccccc2)n3CC)n1 [Compound 58, 1-ethyl-N-(2-ethyl-2H-1,20,3-triazol-4-yl)-2-(hydroxydiphenylmethyl)-5-methoxy-1H-imidazo[4,5-b]pyridine-6-carboxamide] |
| 1 to 10 | 10 to 100 | CCn1cnc(NC(=O)c2cc3c(nc2C)nc(C(O)(c2ccccc2F)c2ccc(OC(F)F)cc2F)n3CC)n1 (racemic) [Compound 97, 2-{[4-(difluoromethoxy)-2-fluorophenyl](2-fluorophenyl)hydroxymethyl}-1-ethyl-N-(1-ethyl-1H-1,2,4-triazol-3-yl)-5-methyl-1H-imidazo[4,5-b]pyridine-6-carboxamide] |
| 10 to 100 | 10 to 100 | CCn1cc(NC(=O)c2cnc3nc(C(O)(c4ccccc4)c4ccccc4)n(C)c3c2)cn1 [Compound 114, N-(1-ethyl-1H-pyrazol-4-yl)-2-(hydroxydiphenylmethyl)-1-methyl-1H-imidazo[4,5-b]pyridine-6-carboxamide] |
| 10 to 100 | 10 to 100 | CCn1cnc(NC(=O)c2cc3c(nc2OC)nc(C(O)(c2ccccn2)c2cccs2)n3CC)n1 (racemic) [Compound 43, 1-ethyl-N-(1-ethyl-1H-1,2,4-triazol-3-yl)-2-[hydroxy(pyridin-2-yl)(thiophen-2-yl)methyl]-5-methoxy-1H-imidazo[4,5-b]pyridine-6-carboxamide] |
| 10 to 100 | 10 to 100 | CCn1cnc(NC(=O)c2cc3c(nc2C)nc(C(O)(c2ccccc2F)c2ccc(OC(F)F)cc2F)n3CC)n1 (single isomer, unassigned) [Compound 95] |
| 100 to 10000 | 10 to 100 | CCc1nc(CNC(=O)c2cc3c(nc2OC)nc(C(O)(c2ccccc2)c2ccccc2)n3CC)no1 [Compound 63, 1-ethyl-N-[(5-ethyl-1,2,4-oxadiazol-3-yl)methyl]-2-(hydroxydiphenylmethyl)-5-methoxy-1H-imidazo[4,5-b]pyridine-6-carboxamide] |
| 10 to 100 | – | CCc1c(C(O)(c2ccccc2)c2nccs2)nc2cc(OC)c(C(=O)Nc3ncn(CC)n3)cn12 (racemic) [Compound 32, 3-ethyl-N-(1-ethyl-1H-1,2,4-triazol-3-yl)-2-[hydroxy(phenyl)(1,3-thiazol-2-yl)methyl]-7-methoxyimidazo[1,2-a]pyridine-6-carboxamide] |
| 1 to 10 | – | CCn1cnc(NC(=O)c2cc3c(nc2OC)nc(C(O)(c2ccccc2)c2ccccc2C)n3CC)n1 (racemic) [Compound 56, 1-ethyl-N-(1-ethyl-1H-1,2,4-triazol-3-yl)-2-[hydroxy(2-methylphenyl)phenylmethyl]-5-methoxy-1H-imidazo[4,5-b]pyridine-6-carboxamide] |
| 10 to 100 | – | CCn1cnc(NC(=O)c2cc3c(nc2OC)nc(C(O)(c2ccccc2)c2ccn(C)n2)n3CC)n1 (racemic) [Compound 40, 1-ethyl-N-(1-ethyl-1H-1,2,4-triazol-3-yl)-2-[hydroxy(1-methyl-1H-pyrazol-3-yl)phenylmethyl]-5-methoxy-1 H-imidazo[4,5-b]pyridine-6-carboxamide] |
